From patent US20260306460A1, “COMPOSITION FOR REMOVING AND INHIBITING SENESCENT CELLS, AND USES THEREOF” (LIFECEUTIX CO., LTD., priority 2023, published 2026)

Legend:
[1] = test system: obesity-induced aged C57BL6J mice; assay: p16, MMP3, IL6 mRNA in groin fat of obese aged mice given senescent cells killed by test compound, Example 16; type: in vivo, mouse; details: no administration = 100%
Text: To obtain preadipocytes, groin fat tissue was collected from an 8-week-old female C57BL6J mouse (KRIBB Laboratory Animal Resource Center). The fat tissue was cut into small pieces and treated with collagenase to decompose the fat tissue, then centrifuged to collect the stromal vascular fraction (SVF) containing preadipocytes. It was washed with a washing medium (HBSS, GenDEPOT; 3.5% Albumin Fraction V, GenDEPOT; 100 U/ml Penicillin & Streptomycin, Invitrogen), mixed again, and extracted by filtering through a 100 μm nylon mesh. The isolated preadipocytes were cultured in the designated medium (DMEM, GenDEPOT; 20% FBS, GenDEPOT; 100 U/ml Penicillin & Streptomycin, Invitrogen). In the same manner as Example 1 of WO2023-085787 A1, cells were treated with doxorubicin at a concentration of 250 nM for 24 hours and cultured for an additional 21 days to induce cell senescence. […] By treating the test compound in the same manner as in Example 13, it was confirmed using an optical microscope that the death of most senescent cells was induced. […] Afterwards, the mouse was sacrificed in the same manner as in Example 7-2 of WO2023-085787 A1, total RNA was extracted from the groin fat tissue, and qRT-PCR was performed and analyzed using the synthesized cDNA. […] The mRNA amount of p16, MMP3, and IL6 without administration of senescent cells whose death was induced by the test compound were calculated as 100%, and the amount of p16, MMP3, and IL6 after administration of the senescent cells whose death was induced by the test compound were compared with them. […] The amount of activity evaluation without administration of senescent cells whose death was induced by the test compound was calculated as 100% and compared it with the amount of activity evaluation after administration of senescent cells whose death was induced by the test compound. […]

[2] = test system: doxorubicin-induced aged C57BL6J mice; assay: SASP mRNA (IL6, CXCL1, CXCL10, IL1B) in doxorubicin-aged mice, Example 22-6, Table 35; type: in vivo, mouse; details: untreated aged = 100%
Experimental: Eight-week-old male C57BL6J mice (KRIBB Laboratory Animal Resource Center) were acclimated to the experimental environment for one week. Afterwards, the anticancer agent doxorubicin was administered intraperitoneally at a concentration of 10 mg/kg, inducing aging for more than 10 days. The aging-induced mice were randomly assigned to experimental and control groups. LX-403 was mixed with a 10% ethanol solution of PEG400 and administered orally at a concentration of 25 mg/kg or intradermally at a concentration of 1 μM for 21 days. LX-1801 was mixed in distilled water with 4% DMSO, 30% PEG300, and 5% Tween80 and administered intradermally at a concentration of 0.4 μM daily for 21 days. LX-2001 was mixed in PBS and administered intradermally at a concentration of 2 μM daily for 21 days. LX-2002 was mixed in distilled water with 4% DMSO, 30% PEG300, and 5% Tween80 and administered intradermally at a concentration of 2 μM daily for 21 days. […] LX-2005 was mixed in distilled water with 4% DMSO, 30% PEG300, and 5% Tween80 and administered intradermally at a concentration of 90 μM daily for 21 days. LX-2007 was mixed in distilled water with 4% DMSO, 30% PEG300, and 5% Tween80 and administered intradermally at a concentration of 90 μM daily for 21 days. […] LX-3002 was mixed in distilled water with 4% DMSO, 30% PEG300, and 5% Tween80 and administered orally at a concentration of 10 mg/kg daily for 21 days. […] LX-5411 was mixed in 5% phosphate-buffered saline (PBS) and administered orally at a concentration of 10 mg/kg daily for 21 days or intradermally at a concentration of 3 μM. LX-5701 was mixed in PBS and administered orally at a concentration of 360 mg/kg daily for 21 days. LX-6807 was mixed in saline and administered intraperitoneally at a concentration of 1 mg/kg daily for 21 days. The control group received only the solution in the same volume. After the end of drug administration, the methods described in each example below were performed.
Using cDNA synthesized in the same manner as in Example 7-6 of WO2023-085787 A1, qRT-PCR was performed and analyzed for senescence-associated secretory factors (SASPs) like IL6, CXCL1, CXCL10, IL1B, etc. […] The mRNA amount of each factor after aging induction was calculated as 100% and compared with the mRNA amount of each factor after LX-5701 treatment.

[3] = senescent preadipocytes killed by test compound sc

| SMILES | IL6 mRNA [1, 3] | MMP3 mRNA [1, 3] | p16 mRNA ([1]; senescent preadipocytes killed by test compound, 5×10^5 cells sc) | CXCL1 mRNA (%), Liver ([2]; Liver) | CXCL10 mRNA (%), Liver ([2]; Liver) | IL1β mRNA (%), Liver ([2]; Liver) | IL6 mRNA (%), Liver ([2]; Liver) | CXCL1 mRNA (%), eWAT ([2]; eWAT) | CXCL10 mRNA (%), eWAT ([2]; eWAT) | IL1β mRNA (%), eWAT ([2]; eWAT) | IL6 mRNA (%), eWAT ([2]; eWAT) |
| --- | --- | --- | --- | --- | --- | --- | --- | --- | --- | --- | --- |
| S=C(N/N=C1\CCCc2cccnc21)N1CCN(c2ccccn2)CC1 [LX-801] | 79.4 (±4.6) % | 81.7 (±2.9) % | 79.8 (±3.4) % | – | – | – | – | – | – | – | – |
| O=C1C2CCN(CC2)C1CNC(=O)C(F)(F)F (centres unmarked) [LX-5701] | – | – | – | 68 (±14.8) % | 75 (±4.1) % | 73 (±3.5) % | 64 (±7.5) % | 74 (±4.7) % | 69 (±7.0) % | 56 (±11.2) % | 55 (±15.1) % |
